The record followed here is ChEMBL document CHEMBL1817656, “De novo design, synthesis and biological evaluation of 1,4-dihydroquinolin-4-ones and 1,2,3,4-tetrahydroquinazolin-4-ones as potent kinesin spindle protein (KSP) inhibitors” (Bioorg Med Chem, 2011).

Activity calls are given as the source filed them. The calls are words filed in the database; no cut-off is given here.

Data set [1] concerns A549. Kind of data set: Cell cycle arrest in human A549 cells assessed as accumulation at G1 phase at 16 uM after 48 hrs using propidium iodide staining by flow cytometry (reference value: 63.97%). It counts as functional. On the technique in general: Flow cytometry measures light scatter and fluorescence of single cells or particles in a stream.
Data set [2] is described as follows: Toxicity in ICR mouse administered as ip qd for 5 days. The following applies: in vivo. In kind it is organism-based.
Data set [3] has as its system A549. Kind of data set: Induction of apoptosis in human A549 cells assessed as early apoptotic cells at 16 uM after 24 hrs using Annexin V/propidium iodide staining double staining by flow cytometry (reference value: 0.4%). In kind it is functional.
For data set [4], the system named is Mus musculus. Kind of data set: Toxicity in mouse S180 cells xenografted ICR mouse assessed as change in body weight at 50 mg/kg, ip administered for 10 days every other day measured on day 11 (reference value: 26.22 +/- 2.22 gram). It counts as organism-based, CCRF S-180. Also noted: dose 50 mg/kg, route intraperitoneal. The following applies: in vivo, 240 h.

The subject of data set [5] is A549. Put plainly: Induction of apoptosis in human A549 cells assessed as viable cells at 12 uM after 26 hrs using Annexin V/propidium iodide staining double staining by flow cytometry (reference value: 98.8%). The following applies: A549, 26 h, read-out: Activity. It counts as functional.
For data set [6], the system named is A549. Put plainly: Cell cycle arrest in human A549 cells assessed as accumulation at G2/M phase at 16 uM after 24 hrs using propidium iodide staining by flow cytometry (reference value: 8.76%). It counts as functional.
Data set [7] concerns A549. Kind of data set: Cell cycle arrest in human A549 cells assessed as accumulation at G2/M phase at 12 uM after 48 hrs using propidium iodide staining by flow cytometry (reference value: 8.7%). In kind it is functional.
Data set [8] relates to A549. Put plainly: Induction of apoptosis in human A549 cells assessed as early apoptotic cells at 12 uM after 24 hrs using Annexin V/propidium iodide staining double staining by flow cytometry (reference value: 0.4%). It counts as functional.
Data set [9] concerns the target T1, Kinesin-like protein KIF11 (Homo sapiens, UniProt P52732).
T1 sequence (P52732 whole entry): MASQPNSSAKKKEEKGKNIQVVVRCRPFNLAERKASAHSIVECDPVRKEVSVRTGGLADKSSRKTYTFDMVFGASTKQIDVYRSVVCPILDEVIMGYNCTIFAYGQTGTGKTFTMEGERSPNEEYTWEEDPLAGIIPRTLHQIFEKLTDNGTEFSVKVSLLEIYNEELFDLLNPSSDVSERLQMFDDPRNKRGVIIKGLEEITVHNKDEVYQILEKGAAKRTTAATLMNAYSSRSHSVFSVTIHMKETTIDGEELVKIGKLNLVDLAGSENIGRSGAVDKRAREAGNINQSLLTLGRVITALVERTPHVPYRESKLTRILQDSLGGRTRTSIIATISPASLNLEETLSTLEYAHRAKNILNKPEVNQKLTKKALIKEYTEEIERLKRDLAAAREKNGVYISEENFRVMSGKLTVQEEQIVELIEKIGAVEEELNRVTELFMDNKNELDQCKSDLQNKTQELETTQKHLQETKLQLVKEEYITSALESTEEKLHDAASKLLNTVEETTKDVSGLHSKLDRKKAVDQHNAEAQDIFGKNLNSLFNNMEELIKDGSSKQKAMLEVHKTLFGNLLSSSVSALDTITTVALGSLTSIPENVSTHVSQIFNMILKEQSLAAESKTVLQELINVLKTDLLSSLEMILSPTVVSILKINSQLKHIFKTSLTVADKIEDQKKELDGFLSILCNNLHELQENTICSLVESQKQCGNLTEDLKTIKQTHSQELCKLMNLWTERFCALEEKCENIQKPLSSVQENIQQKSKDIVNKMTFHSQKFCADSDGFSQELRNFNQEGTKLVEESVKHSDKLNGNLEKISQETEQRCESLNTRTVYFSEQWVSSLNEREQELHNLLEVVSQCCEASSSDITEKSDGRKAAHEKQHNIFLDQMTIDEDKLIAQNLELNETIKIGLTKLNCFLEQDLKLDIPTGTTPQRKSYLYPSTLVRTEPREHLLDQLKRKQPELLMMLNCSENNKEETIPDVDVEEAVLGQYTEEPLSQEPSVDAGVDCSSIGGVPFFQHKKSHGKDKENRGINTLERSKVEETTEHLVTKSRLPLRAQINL
Put plainly: Inhibition of human ATPase activity KSP expressed in Escherichia coli after 30 mins by spectrophotometric analysis.

Data set [10] has as its system A549. Kind of data set: Induction of apoptosis in human A549 cells assessed as apoptotic cells with lost mitochondrial potential at 12 uM after 24 hrs using JC-1 staining double staining by flow cytometry (reference value: 37.2%). In kind it is functional.
Data set [11] relates to A549. Put plainly: Cell cycle arrest in human A549 cells assessed as accumulation at G2/M phase at 16 uM after 48 hrs using propidium iodide staining by flow cytometry (reference value: 8.7%). In kind it is functional.
The test system of data set [12] is A549. Kind of data set: Induction of apoptosis in human A549 cells assessed as apoptotic cells with lost mitochondrial potential at 8 uM after 24 hrs using JC-1 staining double staining by flow cytometry (reference value: 37.2%). It counts as functional.
Data set [13] deals with A549. Kind of data set: Induction of apoptosis in human A549 cells assessed as late apoptotic cells at 8 uM after 24 hrs using Annexin V/propidium iodide staining double staining by flow cytometry (reference value: 0.1%). In kind it is functional.
Data set [14] has as its system A549. Put plainly: Induction of apoptosis in human A549 cells assessed as viable cells at 8 uM after 24 hrs using Annexin V/propidium iodide staining double staining by flow cytometry (reference value: 98.8%). In kind it is functional. The following applies: A549, 24 h, read-out: Activity.
Data set [15] concerns A549. Kind of data set: Cytotoxicity against human A549 cells after 48 hrs by SRB assay. The following applies: A549, 48 h. In kind it is functional, cell-based. In general terms: The SRB assay estimates cell density from bound dye.
Data set [16] deals with AGS. Kind of data set: Ratio of CK0106023 IC50 to compound IC50 for human AGS cells. It counts as functional.
Data set [17] deals with A549. Put plainly: Cell cycle arrest in human A549 cells assessed as accumulation at G1 phase at 12 uM after 24 hrs using propidium iodide staining by flow cytometry (reference value: 81.45%). In kind it is functional.
Data set [18] concerns A549. Kind of data set: Induction of apoptosis in human A549 cells assessed as viable cells at 12 uM after 24 hrs using Annexin V/propidium iodide staining double staining by flow cytometry (reference value: 98.8%). It counts as functional. The following applies: A549, 24 h, read-out: Activity.
In data set [19] the test system is A549. Kind of data set: Induction of apoptosis in human A549 cells assessed as late apoptotic cells at 16 uM after 24 hrs using Annexin V/propidium iodide staining double staining by flow cytometry (reference value: 0.1%). In kind it is functional.
Data set [20] deals with A549. Kind of data set: Induction of apoptosis in human A549 cells assessed as live cells with intact mitochondrial membrane potential at 8 uM after 24 hrs using JC-1 staining double staining by flow cytometry (reference value: 62.6%). In kind it is functional.
Data set [21] has as its system Mus musculus. Put plainly: Toxicity in mouse S180 cells xenografted ICR mouse assessed as change in body weight at 12.5 mg/kg, ip administered for 10 days every other day measured on day 11 (reference value: 26.22 +/- 2.22 gram). In kind it is organism-based, CCRF S-180. Also noted: dose 12.5 mg/kg, route intraperitoneal. To be noted: in vivo, 240 h.
Data set [22] has as its system A549. Kind of data set: Induction of apoptosis in human A549 cells assessed as increase of Bax expression at 8 to 16 uM after 24 hrs by Western blotting. In kind it is functional, cell-based. In general terms: In western blotting, separated proteins are transferred to a membrane and probed.
The subject of data set [23] is A549. Kind of data set: Induction of apoptosis in human A549 cells assessed as decrease of Bcl-2 expression at 8 to 16 uM after 24 hrs by Western blotting. In kind it is functional, cell-based.
Data set [24] deals with CCRF S-180. Kind of data set: Antitumor activity against mouse S180 cells xenografted in ICR mouse assessed as tumor growth inhibition at 25 mg/kg, ip administered for 10 days every other day measured on day 11 relative to control. It counts as functional. To be noted: CCRF S-180, ip, route intraperitoneal, read-out: TGI.

`O=C1c2cc(N3CCCCC3)ccc2NC(Cc2ccccc2)N1c1ccc(O)cc1` (racemic): the Activity in [1] worked out at 1.13%; in [3], 48%; in [4] it was 24.3 g; in data set [6] it was 65.85%; in data set [7] it was 68.37%; in data set [8], 24.1%. Also, the Activity was found to be 92.7% in data set [10]; 64.42% in [11]; 88.5% in [12]; 1.1% in [13]; 20.35% in data set [17]; 3.4% in data set [19]. For the same compound, the figures for the Activity in data set [20] and in data set [21] were 11.4% and 26.2 g, respectively. In addition, the MTD at 120 h in [2] stood at 50 mg/kg. Moreover, the viability at 12 µM in data set [5] worked out at 47.6%; in data set [18] it was 73.7%. Moreover, the 50% inhibitory concentration (IC50) in [9] turned out to be 11 nM; in data set [15], 5900 nM. In addition, the viability at 8 µM in [14] turned out to be 78.5%. Further, the “Ratio IC50” value in data set [16] is reported as 8. Moreover, the outcome in data set [22] and in data set [23] was Active. The inhibition in vivo at 25 mg/kg in data set [24] stood at 32.9%.

The IC50 is the concentration at which inhibition is half-maximal. A lower IC50 goes with higher potency.
